Measurements taken from US20250339091A1, “HONEY BEE-DERIVED BIOACTIVE WOUND DRESSING WITH SUSTAINED ANTIMICROBIAL RELEASE” (priority 2025, published 2025).

Assay: fluorescent dye diffusion assays in simulated wound fluid
Assay type: physicochemical
Description: For example, in experiments using rhodamine B as a tracer molecule, diffusion coefficients within the patterned hydrogel matrix increased from 1.4×10^−7 cm^2/s at 35° C. to 3.6×10^−7 cm^2/s at 37.5° C., confirming the gating effect of the thermoresponsive architecture. The permeability enhancement facilitates more rapid passive diffusion of bioactive agents—such as hydrogen peroxide from raw honey or flavonoids from propolis extract—from the surrounding microcapsules into the wound site, even before active actuator-based release is triggered. This early-stage, temperature-coupled passive transport acts as a preemptive therapeutic buffer, delivering antimicrobials during acute inflammatory flares while reducing latency between pathogenic escalation and drug availability.

Q: Which results are given for `CCN(CC)c1ccc2c(-c3ccccc3C(=O)O)c3ccc(=[N+](CC)CC)cc-3oc2c1.[Cl-]` [rhodamine B]?
A: diffusion coefficient within the patterned hydrogel matrix (at 35° C.): 1.4×10^−7 cm^2/s; diffusion coefficient within the patterned hydrogel matrix (at 37.5° C.): 3.6×10^−7 cm^2/s
